Experimental data reported in US20240415918A1, “Polypeptide and its use as a CCK receptor agonist/antagonist” (Centre for Regenerative Medicine & Health, Hong Kong …, priority 2021, published 2024).
“Also recorded” adds a separate entry of the source.

Experiments:
[1] = tested on: tri-transgenic Alzheimer's mice (3×Tg-AD); assay: Morris water maze, Alzheimer's mice; format: in vivo; details: intraperitoneal injection
Description: Adult male tri-transgenic Alzheimer's mice (3×Tg-AD) were housed under standard conditions with free access to food and water. Our Morris water maze experiment for testing Alzheimer's mice mainly included two parts: positioning navigation experiment and space exploration experiment. The positioning navigation experiment lasted for 8-10 days, and the mice were put into the water four times a day from four entry points facing the pool wall, and the time they spent in finding the hidden platform under the water surface (evasion latency) was recorded. The space exploration experiment was to remove the platform after the positioning navigation experiment, and then put the mice into the pool, record their swimming tracks within one minute, investigate the memory of the mice on the original platform, and calculate the proportion of exploration duration of the mice in the quadrant where the original platform was located (target quadrant). Alzheimer's mice were confirmed to have memory deficiency in the Morris water maze experiment, showing not only a longer evasion latency for positioning the hidden platform in the positioning navigation experiment, but also a worse memory backtracking ability in the space exploration experiment. We randomized Alzheimer's mice into four groups, with the first group given intraperitoneal injection of the CCK4 solution, the second group given intraperitoneal injection of the solvent of CCK4 solution as a control, the third group given intraperitoneal injection of the compound HT-267 solution, and the fourth group given intraperitoneal injection of the solvent of HT-267 solution as a control.

[2] = target: T1, CCK-B receptors (CHO-CCK) (Homo sapiens, UniProt P32239); assay: Calcium flux (Fluo-8) agonist test on CHO-CCK model cells; format: cell-based; details: CHO-CCK cells
T1 construct: expressed in transfected cells; host or cells: CHO (CHO-CCK model cells)
T1 sequence (P32239 1-447): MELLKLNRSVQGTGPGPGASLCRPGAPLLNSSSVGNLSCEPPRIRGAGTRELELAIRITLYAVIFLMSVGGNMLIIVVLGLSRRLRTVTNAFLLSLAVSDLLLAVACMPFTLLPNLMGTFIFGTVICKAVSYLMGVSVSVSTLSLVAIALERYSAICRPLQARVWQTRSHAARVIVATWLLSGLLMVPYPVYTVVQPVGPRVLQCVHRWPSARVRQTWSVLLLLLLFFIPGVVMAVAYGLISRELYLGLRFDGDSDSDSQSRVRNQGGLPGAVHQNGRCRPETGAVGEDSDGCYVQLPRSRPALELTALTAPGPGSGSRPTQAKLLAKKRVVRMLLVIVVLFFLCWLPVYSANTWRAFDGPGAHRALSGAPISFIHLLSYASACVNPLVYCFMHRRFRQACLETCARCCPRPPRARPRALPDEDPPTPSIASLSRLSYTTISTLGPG
Summary of the method: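 Agonist-mode Fluo-8 calcium flux read on CHO-CCK cells after dye loading 30 min at 37 °C plus 30 min at room temperature.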

[3] = Pharmacokinetics in KM mice after intravenous administration; details: male, mouse, plasma, 1 mg/kg

EC50 ([2]; Fluo-8 calcium flux, 100% control = 20 nM CCK8): 0.113 nM
agonistic/antagonistic activity on CCK-B receptors (in words) ([2]; calcium signal): more active
AUC(0-inf) [3]: 302 ng·h/mL
Cmax [3]: 1930 ng/mL
Tmax [3]: 1.98 min
half-life ([3]; T1/2, KM mice male, I.V. 1 mg/kg): 96.1 min
Structure (SMILES): CSCC[C@H](NC(=O)[C@@H](Cc1c[nH]c2ccccc12)NC(C)=O)C(=O)N[C@@H](CC(=O)O)C(=O)N[C@@H](Cc1cccc(Br)c1)C(N)=O [HT-267, Ac-D-Trp-Met-Asp-Phe(3-Br)-NH2]
proportion of exploration duration in the target quadrant vs control [1]: significantly higher than the control group; also recorded: slightly better than the CCK4 administration group
spatial exploration tracks in space exploration experiment [1]: more spatial exploration tracks at the original position of the platform
evasion latency in positioning navigation experiment vs control ([1]; CCK4 four times a day 10 days, HT-267 once a day 8 days): shorter than that of the control group
